Reference: patent US5656449A, “Neutral unsymmetrical cyanine dyes” (Molecular Probes, Inc., priority 1995, dated 1997)
Structures can show the parent of a compound that is named as a salt.

Legend:
[1] = tested on: rat basophilic leukemia (RBL) cells; assay: Rate of dye uptake in live cells; format: cell-based; details: 1 μM-scale dye (3 μL of 1 mM in 3 mL), excited at 490 nm, emission 520 nm; ±~2 sec
Description: Dye uptake data were acquired using rat basophilic leukemia (RBL) cells. A suspension of RBL cells at a concentration of 1×10^6 cells/mL is prepared in room-temperature HEPES-buffered Tyrode's buffer containing 0.1% bovine serum albumin. Three μL of a 1 mM dye solution (in DMSO) is added at T=0 to an acrylic, 1 cm pathlength fluorescence cuvette containing 3 mL of the previously prepared RBL cell suspension. The suspension is then stirred continuously with a Teflon-coated magnetic stir bar. The samples are excited at 490 nm, and the fluorescence emission of the suspension at 520 nm is measured at 200 msec intervals for at least 5 minutes. The T1/2 value represents the time, in seconds, required for the fluorescence of the suspension to reach an intensity half-way between basal fluorescence level and peak fluorescence (±~2 sec).

[2] = tested on: Lambda DNA/Hind III fragments; assay: Staining of nucleic acids in electrophoresis gels; details: for detection limit in DNA gel: 1% agarose/TBE minigel, 1 μM dye in 1XTBE, 30 minutes
Description: Two separate 1% agarose/TBE (89 mM tris-borate, 2 mM EDTA) minigels are loaded with Lambda DNA/Hind III fragments in a 3-fold serial dilution series of 1 μg, 333 ng, 111 ng, 37.0 ng, 12.4 ng 4.1 ng, 1.4ng. 0.5 ng, 0.2 ng, and 0.05 ng per lane. After the gels are subjected to electrophoresis, the gels are stained with either Dye 510 or Dye 798, as a 1 μM solution in 1XTBE for 30 minutes.
After staining, each gel is illuminated at 254 nm using an epi-illuminator.Gels are photographed with POLAROID 667 black and white print film, Dye 798 stains the gel with a detection limit of 350 pg/band, while Dye 510 stains the gel with a detection limit of 180 pg/band.

[3] = tested on: cells; details: background art; cited from earlier work
[4] = tested on: Saccharomyces cerevisiae; assay: Viability determination of cultured yeast; format: cell-based; details: 1 μM dye, 15 minutes, 490 nm-excited
Description: A culture of Saccharomyces cerevisiae is grown in 75 mL of yeast extract-peptone-dextrose (YPD) broth for 2 weeks at 30° C., shaking at 200 rpm in a capped 250 mL Erlenmeyer flask. A 2 mL sample is taken aseptically each day. One mL of this sample is serially diluted in sterile 2% glucose solution and 0.1 mL plated on YPD agar in standard r 100 mm petri dishes. Yeast numbers in the dilution samples having visible turbidity are quantified using a Petroff-Hauser counting chamber. The other 1 mL of the sample is centrifuged in a microcentrifuge at 5,000 rpm for 5 minutes, and resuspended in 100 μL of 1 μM Dye 509 in 2% sterile dextrose solution. After incubation for 15 minutes with the dye, the sample is diluted to 3 mL and the 490 nm-excited […] fluorescence is measured relative to a series of standard fluorescein solutions spanning a 10,000-fold range in fluorescence.

[5] = tested on: NIH 3T3 fibroblasts; assay: Discrimination of plasma membrane-compromised fibroblasts; format: cell-based; details: 0.1 or 1.0 μM dye, 5 minutes
Description: NIH 3T3 fibroblasts are grown to 75% confluency on 18 mm^2 glass coverslips under standard tissue culture conditions. Coverslips of 3T3 cells are exposed to 0.0001% to 0.1% saponin in HEPES-buffered complete saline solution (HBSS) for 10 minutes at room temperature and subsequently rinsed into HBSS containing 0.1 or 1.0 μM Dye 4100. After incubation for 5 minutes, coverslips are washed with HBSS and mounted on glass microscope slides using glass coverslips as spacers to avoid crushing the cells. The cell fluorescence is observed in the epi-fluorescence microscope using a 40X 0.85 NA objective lens and a standard rhodamine long-pass filter set (546 nm excitation/580 nm emission).

[6] = illumination at 254 nm, 1 μM dye

## CN1C(=Cc2ccncc2)Sc2ccccc21 [Dye 7101]
[1]
  T1/2 for cell loading: 7 s

## Cc1cc(C=C2Sc3ccccc3N2C)c2ccccc2n1 [Dye 523-2]
[1]
  T1/2 for cell loading: 1 s

## CN1C(=Cc2cc[n+](C)c3ccccc23)Sc2ccccc21 [Thiazole Orange, reference compound]
[2]; illumination of 254 nm, comparison dye
  limit of detection in DNA gel: 1-2 ng/band
[1]
  T1/2 for cell loading: 9 s
[3]
  staining of cells: readily stains many mammalian cells, yet does not effectively stain some eukaryotic cells

## CCN1C(=Cc2cc(Sc3ccccc3)nc3ccccc23)Sc2ccccc21 [Dye 509]
[4]
  fluorescence at 520 nm with increasing proportion of dead cells: increase in fluorescence at 520 nm

## CCCCc1cc(C=C2Sc3ccccc3N2CC)c2ccccc2n1 [Dye 1268]
[1]
  T1/2 for cell loading: 3 s

## Cc1cc(C=C2Sc3ccccc3N2C)nc2ccccc12 [Dye 523-1]
[1]
  T1/2 for cell loading: 41 s

## CCN1C(=Cc2cc(-c3ccccc3)nc3ccccc23)Sc2ccccc21 [Dye 4100]
[5]; 0.0001% to 0.1% saponin
  staining of cells with compromised plasma membranes: stain brightly
[5]
  staining of untreated 3T3 cells: virtually unstained

## CCN(CC)c1cc(C=C2Sc3ccccc3N2CC)c2ccccc2n1 [Dye 510]
[2]; illumination at 254 nm
  detection limit in DNA gel: 180 pg/band
[2]; [6]
  fluorescence colour of stained DNA-containing bands: blue-green fluorescence

## CCN1C(=Cc2ccnc3ccccc23)Sc2ccccc21 [Dye 1266]
[1]
  T1/2 for cell loading: 2 s

## CN1C(=Cc2ccnc3ccccc23)Oc2ccccc21 [Dye 799]
[1]
  T1/2 for cell loading: 2 s

## CN1C(=Cc2ccnc3ccccc23)Sc2ccccc21 [Dye 798, 4-(2,3-dihydro-3-methyl-(benzo-1,3-thiazol-2-yl)-methylidine)-quinolinium tosylate]
[2]; illumination at 254 nm
  detection limit in DNA gel: 350 pg/band
[2]; [6]
  background staining of gel: no observable background staining
  fluorescence colour of stained DNA-containing bands: blue-green fluorescence
[1]
  T1/2 for cell loading: 3 s
